Patent publication US20050288347A1, “Certain triazole-based compounds, compositions, and uses thereof” (priority 2004, published 2005)
Entries after “also recorded” stand apart in the source; their conditions may differ.

Each molecule was assayed against protein kinase (assay: HTS ATP-utilizing enzyme assay, off-chip mobility-shift format (Caliper HTS 250)). Details: kinase(s) for which the compound exhibits protein kinase inhibitory activity; test compound 10 μM; active = greater than three-sigma from the mean activity of inactive compounds.
Type: biochemical, human
Summary of the method: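 Single-point screen at 10 μM compound in HEPES pH 7.5 buffer with Triton X-100 and BSA, 2.5 h at 20–22 °C. Substrate-to-phosphopeptide ratio measured by off-chip microfluidic mobility shift; EDTA wells as 100% and DMSO wells as 0% control, hits called at three-sigma limits.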

| Kinase | SMILES |
| --- | --- |
| ABL1 | COc1ccc(-n2c(S)nnc2-c2cccnc2)cc1 [4-(4-methoxyphenyl)-5-(pyridin-3-yl)-4H-1,2,4-triazole-3-thiol] |
| AURORA-A | COc1ccc(-n2c(C)nnc2S)cc1 [4-(4-methoxyphenyl)-5-methyl-4H-1,2,4-triazole-3-thiol] |
| CDK5 and GSK3-β and GSK3-α | COc1ccc(-n2c(S)nnc2-c2ccc(O)cc2)cc1 [4-(5-mercapto-4-(4-methoxyphenyl)-4H-1,2,4-triazol-3-yl)phenol] |
| CDK5 and CDK2-cyclinA and CDK2-cyclinE | Cn1c(S)nnc1-c1ccc(O)cc1 [4-(5-mercapto-4-methyl-4H-1,2,4-triazol-3-yl)phenol] |
| CDK5 and GSK3-α and CDK2-cyclinA | Oc1ccc(-c2nnc(S)n2-c2ccccc2)cc1 [4-(5-mercapto-4-phenyl-4H-1,2,4-triazol-3-yl)phenol] |
| GSK3-β; also recorded: GSK3-α | C=CCn1c(S)nnc1-c1cc(OC)c(OC)c(OC)c1 [4-allyl-5-(3,4,5-trimethoxyphenyl)-4H-1,2,4-triazole-3-thiol] |
| GSK3-α | C=CCn1c(S)nnc1COc1ccc(Cl)cc1 [4-allyl-5-((4-chlorophenoxy)methyl)-4H-1,2,4-triazole-3-thiol] |
| AURORA-A | COc1ccccc1-c1nnc(S)n1Cc1ccccc1 [4-benzyl-5-(2-methoxyphenyl)-4H-1,2,4-triazole-3-thiol] |
| AURORA-A | COc1ccccc1OCc1nnc(S)n1Cc1ccccc1 [4-benzyl-5-((2-methoxyphenoxy)methyl)-4H-1,2,4-triazole-3-thiol] |
| AURORA-A | Sc1nnc(CNc2ccc(Cl)cc2)n1Cc1ccccc1 [4-benzyl-5-((4-chlorophenylamino)methyl)-4H-1,2,4-triazole-3-thiol] |
| AKT1 | CCc1ccc(OCc2nnc(S)n2Cc2ccccc2)cc1 [4-benzyl-5-((4-ethylphenoxy)methyl)-4H-1,2,4-triazole-3-thiol] |

Same assay, conditions: test compound 10 μM; active = activity greater than three-sigma from the mean of the predominately inactive population for that enzyme

| protein kinase against which the compound exhibits inhibitory activity (Table 3) | SMILES |
| --- | --- |
| GSK3-β; also recorded: GSK3-α | Cn1c(SCc2ccccn2)nnc1-c1ccc(O)cc1 [4-(4-methyl-5-(pyridin-2-ylmethylthio)-4H-1,2,4-triazol-3-yl)phenol] |
| CHEK2 | CCn1c(SCc2ccccc2Br)nnc1-c1cc(-c2ccccc2)nc2ccccc12 [4-(5-(2-bromobenzylthio)-4-ethyl-4H-1,2,4-triazol-3-yl)-2-phenylquinoline] |
| GSK3-β; also recorded: AURORA-A | Cn1c(SCc2c(F)cccc2Cl)nnc1-c1ccncc1 [4-(5-(2-chloro-6-fluorobenzylthio)-4-methyl-4H-1,2,4-triazol-3-yl)pyridine] |
| CHEK2 | CCn1c(SCc2ccccc2Cl)nnc1-c1cc(-c2ccccc2)nc2ccccc12 [4-(5-(2-chlorobenzylthio)-4-ethyl-4H-1,2,4-triazol-3-yl)-2-phenylquinoline] |
| GSK3-α | Oc1ccc(-c2nnc(SCCN3CCOCC3)n2-c2ccccc2)cc1 [4-(5-(2-morpholinoethylthio)-4-phenyl-4H-1,2,4-triazol-3-yl)phenol] |
| MSK2 and GSK3-β and MSK1 | CCn1c(SCc2ccc(Cl)cc2)nnc1-c1ccc(O)cc1 [4-(5-(4-chlorobenzylthio)-4-ethyl-4H-1,2,4-triazol-3-yl)phenol] |
| PKA and AURORA-A and MSK2 | CCn1c(SCc2ccc(Cl)cc2)nnc1-c1ccncc1 [4-(5-(4-chlorobenzylthio)-4-ethyl-4H-1,2,4-triazol-3-yl)pyridine] |
| AURORA-A and MSK1 | Cn1c(SCc2ccc(Cl)cc2)nnc1-c1ccncc1 [4-(5-(4-chlorobenzylthio)-4-methyl-4H-1,2,4-triazol-3-yl)pyridine] |
| AURORA-A and PKA and MSK1 | Clc1ccc(CSc2nnc(-c3ccncc3)n2-c2ccccc2)cc1 [4-(5-(4-chlorobenzylthio)-4-phenyl-4H-1,2,4-triazol-3-yl)pyridine] |
| AURORA-A | Cc1ccc(CSc2nnc(-c3ccncc3)n2-c2ccccc2)cc1 [4-(5-(4-methylbenzylthio)-4-phenyl-4H-1,2,4-triazol-3-yl)pyridine] |
| MAPKAPK-2 | CCn1c(SCc2ccc(C(C)(C)C)cc2)nnc1-c1ccncc1 [4-(5-(4-tert-butylbenzylthio)-4-ethyl-4H-1,2,4-triazol-3-yl)pyridine] |
| GSK3-β and AURORA-A and CDK1 | Clc1cccc(-n2c(SCc3ccccc3)nnc2-c2ccncc2)c1 [4-(5-(benzylthio)-4-(3-chlorophenyl)-4H-1,2,4-triazol-3-yl)pyridine] |
| GSK3-β and GSK3-α and MSK2 | Oc1ccc(-c2nnc(SCc3ccccc3)n2Cc2ccco2)cc1 [4-(5-(benzylthio)-4-(furan-2-ylmethyl)-4H-1,2,4-triazol-3-yl)phenol] |
| GSK3-β and GSK3-α and MSK1 | Cn1c(SCc2ccccc2)nnc1-c1ccc(O)cc1 [4-(5-(benzylthio)-4-methyl-4H-1,2,4-triazol-3-yl)phenol] |
| AURORA-A | Cn1c(SCc2ccccc2)nnc1-c1ccncc1 [4-(5-(benzylthio)-4-methyl-4H-1,2,4-triazol-3-yl)pyridine] |
| AURORA-A | c1ccc(CSc2nnc(-c3ccncc3)n2-c2ccccc2)cc1 [4-(5-(benzylthio)-4-phenyl-4H-1,2,4-triazol-3-yl)pyridine] |
| AURORA-A | CCSc1nnc(-c2ccncc2)n1CCCOC [4-(5-(ethylthio)-4-(3-methoxypropyl)-4H-1,2,4-triazol-3-yl)pyridine] |
| AURORA-A | CCC(c1ccccc1)c1nnc(SCc2ccc(C(=O)O)cc2)[nH]1 (stereo not drawn) [4-((5-(1-phenylpropyl)-4H-1,2,4-triazol-3-ylthio)methyl)benzoic acid] |
| FLT-3; also recorded: GSK3-β | Clc1ccc(-c2nnc(SCc3ccncc3)[nH]2)cc1Cl [4-((5-(3,4-dichlorophenyl)-4H-1,2,4-triazol-3-ylthio)methyl)pyridine] |
| AURORA-A; also recorded: DYRK2 | O=C(O)c1ccc(CSc2nnc(-c3cccnc3)[nH]2)cc1 [4-((5-(pyridin-3-yl)-4H-1,2,4-triazol-3-ylthio)methyl)benzoic acid] |
| GSK3-α | CC(C)(C)c1nnc(SCc2ccncc2)[nH]1 [4-((5-tert-butyl-4H-1,2,4-triazol-3-ylthio)methyl)pyridine] |
| GSK3-β; also recorded: GSK3-α | CCc1nnc(SCc2ccccc2)n1Cc1ccc2c(c1)OCO2 [4-(benzo[d][1,3]dioxol-5-ylmethyl)-3-(benzylthio)-5-ethyl-4H-1,2,4-triazole] |
| GSK3-β; also recorded: GSK3-α | CC(C)=CCSc1nnc(C)n1Cc1ccco1 [4-(furan-2-ylmethyl)-3-methyl-5-(3-methylbut-2-enylthio)-4H-1,2,4-triazole] |
| DYRK2 | C=CCn1c(CCC2CCCC2)nnc1SCC=C(C)C [4-allyl-3-(2-cyclopentylethyl)-5-(3-methylbut-2-enylthio)-4H-1,2,4-triazole] |
| GSK3-β; also recorded: GSK3-α | Cc1nnc(SCc2ccccc2)n1Cc1ccccc1 [4-benzyl-3-(benzylthio)-5-methyl-4H-1,2,4-triazole] |
| MSK2 | CSc1nnc(COc2ccccc2C)n1Cc1ccccc1 [4-benzyl-3-(methylthio)-5-(o-tolyloxymethyl)-4H-1,2,4-triazole] |

| SMILES | protein kinase against which the compound exhibits inhibitory activity (Table 3) |
| --- | --- |
| CSc1nnc(-c2ccc(O)cc2)n1-c1ccccc1 [4-(5-(methylthio)-4-phenyl-4H-1,2,4-triazol-3-yl)phenol] | GSK3-β; also recorded: GSK3-α; also recorded: CDK2-cyclinA |
| O=C(O)c1ccc(CSc2nnc(-c3cccc(Cl)c3)[nH]2)cc1 [4-((5-(3-chlorophenyl)-4H-1,2,4-triazol-3-ylthio)methyl)benzoic acid] | FLT-3; also recorded: DYRK2; also recorded: AURORA-A |
| FC(F)(F)Oc1ccc(-c2nnc(SCc3ccncc3)[nH]2)cc1 [4-((5-(4-(trifluoromethoxy)phenyl)-4H-1,2,4-triazol-3-ylthio)methyl)pyridine] | FLT-3; also recorded: c-TAK1; also recorded: GSK3-β |
| COc1ccc(-c2nnc(SCc3ccncc3)[nH]2)cc1 [4-((5-(4-methoxyphenyl)-4H-1,2,4-triazol-3-ylthio)methyl)pyridine] | FLT-3; also recorded: DYRK2; also recorded: GSK3-α |
| O=[N+]([O-])c1ccc(-c2nnc(SCc3ccncc3)[nH]2)cc1 [4-((5-(4-nitrophenyl)-4H-1,2,4-triazol-3-ylthio)methyl)pyridine] | FLT-3; also recorded: GSK3-β; also recorded: GSK3-α |
| O=C(O)c1ccc(CSc2nnc(-c3cccs3)[nH]2)cc1 [4-((5-(thiophen-2-yl)-4H-1,2,4-triazol-3-ylthio)methyl)benzoic acid] | DYRK2; also recorded: AURORA-A; also recorded: FLT-3 |
| c1csc(-c2nnc(SCc3ccncc3)[nH]2)c1 [4-((5-(thiophen-2-yl)-4H-1,2,4-triazol-3-ylthio)methyl)pyridine] | DYRK2; also recorded: AURORA-A; also recorded: FLT-3 |
| Cc1cccc(-c2nnc(SCc3ccc(C(=O)O)cc3)[nH]2)c1 [4-((5-m-tolyl-4H-1,2,4-triazol-3-ylthio)methyl)benzoic acid] | FLT-3; also recorded: DYRK2; also recorded: AURORA-A |
